± gives the expanded uncertainty stated by the source.
Assay: molar heat capacity at constant pressure
Conditions: 101.33 kPa, Vacuum adiabatic calorimetry

O=P([O-])([O-])[O-].[Cs+].[Mn+2] [cesium manganese(II) phosphate]
molar heat capacity at constant pressure [J/K/mol]
Conditions | Crystal 2 | Crystal 3
5 K | – | 1.713 ± 0.075
5.85 K | – | 2.328 ± 0.17
6 K | – | 2.918 ± 0.12
6.04 K | – | 3.492 ± 0.17
6.34 K | – | 4.989 ± 0.39
6.38 K | – | 5.654 ± 0.42
6.59 K | – | 21.87 ± 1.1
6.73 K | – | 13.64 ± 1.5
6.86 K | – | 41.07 ± 4.6
6.9 K | 4.573 ± 0.18 | 4.282 ± 0.17
7 K | 4.623 ± 0.19 | –
7.01 K | 15.8 ± 0.91 | –
7.32 K | 9.146 ± 0.42 | –
7.33 K | 6.236 ± 0.34 | –
7.8 K | 5.986 ± 0.24 | –
8 K | 4.972 ± 0.2 | –
8.09 K | 5.321 ± 0.25 | –
8.15 K | 5.82 ± 0.23 | –
8.3 K | 5.488 ± 0.22 | –
8.79 K | 5.238 ± 0.22 | –
9 K | 5.271 ± 0.22 | –
9.13 K | 5.488 ± 0.25 | –
9.54 K | 5.404 ± 0.22 | –
9.95 K | 5.654 ± 0.25 | –
10 K | 5.579 ± 0.22 | –
10.3 K | 5.654 ± 0.23 | –
11.03 K | 5.903 ± 0.24 | –
11.57 K | 6.319 ± 0.26 | –
12.47 K | 6.818 ± 0.27 | –
12.55 K | 6.901 ± 0.28 | –
13.98 K | 7.816 ± 0.32 | –
15 K | 8.647 ± 0.33 | –
15.39 K | 8.98 ± 0.083 | –
16.79 K | 10.24 ± 0.12 | –
18.22 K | 11.6 ± 0.13 | –
19.65 K | 12.95 ± 0.14 | –
20 K | 13.29 ± 0.15 | –
20.79 K | 14.05 ± 0.16 | –
21.93 K | 15.15 ± 0.17 | –
23.17 K | 16.48 ± 0.17 | –
24.41 K | 17.81 ± 0.19 | –
25 K | 18.42 ± 0.2 | –
26.16 K | 19.68 ± 0.21 | –
27.91 K | 21.56 ± 0.22 | –
29.7 K | 23.55 ± 0.25 | –
30 K | 23.85 ± 0.25 | –
30.98 K | 25 ± 0.26 | –
31.52 K | 25.55 ± 0.27 | –
32.86 K | 26.96 ± 0.27 | –
34.2 K | 28.45 ± 0.29 | –
35 K | 29.29 ± 0.3 | –
36 K | 30.31 ± 0.32 | –
37.79 K | 32.15 ± 0.33 | –
39.59 K | 33.82 ± 0.35 | –
40 K | 34.22 ± 0.35 | –
41.48 K | 35.49 ± 0.22 | –
43.18 K | 36.82 ± 0.23 | –
45 K | 38.16 ± 0.24 | –
45.05 K | 38.3 ± 0.24 | –
46.84 K | 39.62 ± 0.25 | –
48.73 K | 41.07 ± 0.26 | –
50 K | 42.05 ± 0.27 | –
50.55 K | 42.5 ± 0.27 | –
52.38 K | 44 ± 0.28 | –
54.21 K | 45.4 ± 0.29 | –
56.04 K | 46.79 ± 0.3 | –
57.87 K | 48.08 ± 0.31 | –
59.7 K | 49.36 ± 0.32 | –
60 K | 49.65 ± 0.32 | –
61.53 K | 50.69 ± 0.32 | –
63.37 K | 52 ± 0.33 | –
65.2 K | 53.24 ± 0.33 | –
67.03 K | 54.47 ± 0.34 | –
68.87 K | 55.66 ± 0.35 | –
70 K | 56.41 ± 0.36 | –
70.7 K | 56.85 ± 0.36 | –
72.42 K | 57.92 ± 0.37 | –
73.98 K | 58.82 ± 0.37 | –
75.54 K | 59.72 ± 0.37 | –
76.62 K | 60.35 ± 0.38 | –
77.7 K | 60.98 ± 0.38 | –
78.93 K | 61.69 ± 0.39 | –
79.65 K | 62.09 ± 0.39 | –
80 K | 62.23 ± 0.39 | –
80.15 K | 62.42 ± 0.39 | –
81.49 K | 63.07 ± 0.4 | –
82.19 K | 63.43 ± 0.4 | –
82.8 K | 63.72 ± 0.4 | –
84.9 K | 64.7 ± 0.41 | –

From the NIST ThermoML archive (doi:10.1016/j.jct.2014.06.012)
